# Test results taken from PMC11859264, “Discovery of a Novel Multitarget Analgesic Through an In Vivo-Guided Approach” (Pharmaceuticals, 2025).
# Key:
# [1] = test system: formalin model; assay: Formalin test in mice (primary in vivo screening and ED50); parameters: species or system ICR male mice; settings: mice, 5 mg/kg intraperitoneal, second phase
# Method: For primary screening, the synthesized compounds were administered to mice via intraperitoneal injection at a dose of 5 mg/kg using the formalin model. The percentage inhibition in the second phase, relative to the vehicle control (DMSO/cremophor EL/distilled water = 10:10:80), was calculated.
# Each compound was assessed using four doses (0.1, 1, 5, and 10 mg/kg) by intraperitoneal injection.
# ICR male mice weighing 23–25 g was purchased from Samtako Korea (Osan, Republic of Korea). ICR mice were housed four per cage in a room with 12 h light–dark cycles. The temperature and relative humidity of the room were maintained at 22 ± 2 °C and 50 ± 5%, respectively. Food and water were available ad libitum. The procedures for animal testing were approved by Medifron Animal Care and Use Committees (Approval number; Medifron 2019-9). Efforts were made to minimize animal suffering and to reduce the number of animals used.
# Mice were randomly assigned to five groups (four per group) and single-dose drugs were administered by intraperitoneal injection. The formalin-induced licking paw test was modified from the method described by Dubuisson and Dennis. Each mouse was acclimated to an acrylic observation chamber for at least 30 min before the injection of formalin. Twenty microliters of 2% formalin were injected subcutaneously into the right side of the hind paw. Each mouse was then placed in an individual clear plastic observational chamber (15 × 15 × 15 cm, volume = […] or 3.375 L), and the pain response was recorded for a period of 30 min. The summation of time (in seconds) spent in licking and biting responses of the injected paw during each 5 min block was measured as an indicator of the pain response. The first period (early phase) was recorded 0–5 min after the injection of formalin, and the second period (late phase) was recorded 20–30 min after the injection. The test compound was administered intraperitoneally 30 min before the formalin injection at […]: 0.1, 1, 5, and 10 mg/kg. The vehicle was DMSO/Cremophor EL/distilled water (10/10/80). The data were expressed as the mean ± standard error of the mean (SEM). Statistical analysis was assessed by one-way analysis of variance (ANOVA) with Bonferroni’s post hoc test. Statistical significance was set at p-value < 0.05, with values of p <0.001 considered highly significant.
# [2] = biological target: Serotonin 5-HT2A (Homo sapiens, UniProt P28223); assay: Radioligand binding, [3H] Ketanserin, Eurofins; settings: Serotonin 5-HT2A
# Serotonin 5-HT2A, sequence (P28223 whole entry): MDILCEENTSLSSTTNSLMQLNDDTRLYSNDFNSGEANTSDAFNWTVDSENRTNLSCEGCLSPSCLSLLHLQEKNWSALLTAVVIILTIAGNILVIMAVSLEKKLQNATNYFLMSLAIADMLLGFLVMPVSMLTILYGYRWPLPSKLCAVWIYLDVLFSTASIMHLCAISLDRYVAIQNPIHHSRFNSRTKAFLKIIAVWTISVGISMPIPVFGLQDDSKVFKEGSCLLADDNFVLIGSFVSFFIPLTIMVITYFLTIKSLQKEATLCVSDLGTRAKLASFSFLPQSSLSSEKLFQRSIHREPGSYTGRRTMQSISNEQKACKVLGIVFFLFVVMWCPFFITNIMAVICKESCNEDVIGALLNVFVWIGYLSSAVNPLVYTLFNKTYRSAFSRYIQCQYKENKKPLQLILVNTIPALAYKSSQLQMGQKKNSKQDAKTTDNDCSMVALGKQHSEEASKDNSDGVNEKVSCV
# [3] = biological target: CYP3A4 (Homo sapiens, UniProt P08684); assay: Cytochrome P450 (CYP) inhibition assay; settings: microsomes, pH 7.4
# CYP3A4, sequence (P08684 whole entry): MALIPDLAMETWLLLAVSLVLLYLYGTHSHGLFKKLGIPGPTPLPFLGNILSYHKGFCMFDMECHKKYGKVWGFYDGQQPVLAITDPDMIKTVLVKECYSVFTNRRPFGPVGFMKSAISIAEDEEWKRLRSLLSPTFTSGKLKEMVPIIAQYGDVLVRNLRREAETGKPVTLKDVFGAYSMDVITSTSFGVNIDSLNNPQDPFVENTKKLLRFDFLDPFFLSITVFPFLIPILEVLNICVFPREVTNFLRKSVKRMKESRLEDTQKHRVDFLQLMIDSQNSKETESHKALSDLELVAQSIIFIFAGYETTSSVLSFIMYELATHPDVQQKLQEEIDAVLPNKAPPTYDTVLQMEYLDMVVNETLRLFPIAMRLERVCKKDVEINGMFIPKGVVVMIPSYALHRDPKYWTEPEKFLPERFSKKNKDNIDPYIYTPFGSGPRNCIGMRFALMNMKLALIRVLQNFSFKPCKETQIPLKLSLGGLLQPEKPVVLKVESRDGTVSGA
# [4] = biological target: CYP2C9 (Homo sapiens, UniProt P11712); assay: Cytochrome P450 (CYP) inhibition assay; settings: microsomes, pH 7.4
# CYP2C9, sequence (P11712 whole entry): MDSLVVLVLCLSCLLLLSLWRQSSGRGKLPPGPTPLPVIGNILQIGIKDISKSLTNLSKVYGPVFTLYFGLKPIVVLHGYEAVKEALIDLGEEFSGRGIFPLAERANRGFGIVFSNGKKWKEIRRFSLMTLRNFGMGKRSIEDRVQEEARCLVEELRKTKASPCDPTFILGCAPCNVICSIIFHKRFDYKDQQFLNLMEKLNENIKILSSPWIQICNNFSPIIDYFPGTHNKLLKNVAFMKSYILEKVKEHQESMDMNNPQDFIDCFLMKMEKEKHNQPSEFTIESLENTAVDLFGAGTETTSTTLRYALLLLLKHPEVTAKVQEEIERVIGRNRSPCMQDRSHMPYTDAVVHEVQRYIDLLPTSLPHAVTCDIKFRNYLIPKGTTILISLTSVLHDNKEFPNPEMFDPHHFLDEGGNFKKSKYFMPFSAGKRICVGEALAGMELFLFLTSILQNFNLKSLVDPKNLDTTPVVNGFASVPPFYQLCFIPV
# [5] = biological target: CYP2C19 (Homo sapiens, UniProt P33261); assay: Cytochrome P450 (CYP) inhibition assay; settings: microsomes, pH 7.4
# CYP2C19, sequence (P33261 whole entry): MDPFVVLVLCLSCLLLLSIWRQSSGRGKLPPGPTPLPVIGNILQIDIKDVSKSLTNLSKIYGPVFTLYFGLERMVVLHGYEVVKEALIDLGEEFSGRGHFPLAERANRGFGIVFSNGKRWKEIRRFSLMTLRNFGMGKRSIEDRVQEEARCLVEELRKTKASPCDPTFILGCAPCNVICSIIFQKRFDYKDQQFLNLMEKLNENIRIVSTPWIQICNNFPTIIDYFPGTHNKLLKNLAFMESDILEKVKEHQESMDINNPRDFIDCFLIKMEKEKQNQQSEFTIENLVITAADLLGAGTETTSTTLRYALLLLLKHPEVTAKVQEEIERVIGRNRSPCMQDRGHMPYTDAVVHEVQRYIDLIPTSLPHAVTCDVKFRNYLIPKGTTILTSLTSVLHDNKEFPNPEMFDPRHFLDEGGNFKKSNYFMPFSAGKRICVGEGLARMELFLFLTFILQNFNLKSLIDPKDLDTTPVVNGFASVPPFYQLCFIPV
# [6] = biological target: T1, Dopamine D2L (Homo sapiens, UniProt P14416); assay: Radioligand binding, [3H] Spiperone, Eurofins; settings: Dopamine D2L
# T1 construct: host or cells: CHO cells
# T1 sequence (P14416 whole entry): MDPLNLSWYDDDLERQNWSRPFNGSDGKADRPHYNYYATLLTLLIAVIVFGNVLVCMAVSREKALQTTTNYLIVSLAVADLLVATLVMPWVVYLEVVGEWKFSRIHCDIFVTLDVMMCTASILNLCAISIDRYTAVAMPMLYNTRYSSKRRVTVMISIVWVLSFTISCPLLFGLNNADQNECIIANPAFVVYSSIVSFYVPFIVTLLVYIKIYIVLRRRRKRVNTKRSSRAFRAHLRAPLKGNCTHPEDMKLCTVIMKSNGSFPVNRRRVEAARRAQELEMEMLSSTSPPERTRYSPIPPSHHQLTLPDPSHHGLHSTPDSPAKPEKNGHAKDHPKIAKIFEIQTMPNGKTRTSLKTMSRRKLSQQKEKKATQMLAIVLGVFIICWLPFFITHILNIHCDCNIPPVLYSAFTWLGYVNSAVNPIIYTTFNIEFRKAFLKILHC
# [7] = biological target: T2, Transporter, Dopamine (DAT) (Homo sapiens, UniProt Q01959); assay: Radioligand binding, [125I] RTI-55, Eurofins; settings: DAT
# T2 construct: host or cells: CHO-S cells
# T2 sequence (Q01959 whole entry): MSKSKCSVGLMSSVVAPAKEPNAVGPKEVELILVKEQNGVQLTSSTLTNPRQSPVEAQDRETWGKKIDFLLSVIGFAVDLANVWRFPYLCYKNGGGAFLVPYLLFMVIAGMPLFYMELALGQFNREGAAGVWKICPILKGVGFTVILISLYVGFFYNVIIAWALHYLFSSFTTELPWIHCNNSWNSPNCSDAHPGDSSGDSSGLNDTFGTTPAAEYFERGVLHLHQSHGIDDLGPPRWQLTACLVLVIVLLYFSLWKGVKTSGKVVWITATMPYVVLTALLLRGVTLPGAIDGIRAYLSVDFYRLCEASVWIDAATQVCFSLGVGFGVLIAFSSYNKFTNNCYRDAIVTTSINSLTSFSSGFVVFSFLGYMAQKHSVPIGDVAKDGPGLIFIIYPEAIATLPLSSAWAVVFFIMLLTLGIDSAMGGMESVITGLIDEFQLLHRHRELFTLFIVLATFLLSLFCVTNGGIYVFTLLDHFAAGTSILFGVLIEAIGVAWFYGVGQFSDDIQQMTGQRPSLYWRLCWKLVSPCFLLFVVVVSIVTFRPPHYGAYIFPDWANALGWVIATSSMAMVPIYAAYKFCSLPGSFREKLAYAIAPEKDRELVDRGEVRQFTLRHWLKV
# [8] = biological target: T3, Adrenergic α2A (Homo sapiens, UniProt P08913); assay: Radioligand binding, [3H] Rauwolscine, Eurofins; settings: Adrenergic α2A
# T3 sequence (P08913 1-465): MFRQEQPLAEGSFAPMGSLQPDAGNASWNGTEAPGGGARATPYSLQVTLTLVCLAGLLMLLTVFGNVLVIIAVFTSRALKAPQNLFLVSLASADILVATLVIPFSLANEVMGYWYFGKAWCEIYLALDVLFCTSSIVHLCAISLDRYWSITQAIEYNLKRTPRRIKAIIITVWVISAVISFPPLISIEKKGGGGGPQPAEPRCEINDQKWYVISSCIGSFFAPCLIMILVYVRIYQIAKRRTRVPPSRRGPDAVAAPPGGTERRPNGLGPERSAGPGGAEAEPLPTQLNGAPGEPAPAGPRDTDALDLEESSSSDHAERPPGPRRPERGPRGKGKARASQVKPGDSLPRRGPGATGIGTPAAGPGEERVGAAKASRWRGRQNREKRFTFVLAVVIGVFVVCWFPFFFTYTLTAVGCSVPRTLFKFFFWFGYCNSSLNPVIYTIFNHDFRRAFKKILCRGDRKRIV
compound,measurement,setting,value
"N#Cc1ccc2[nH]cc(C(=O)NCCCN3CCN(C(=O)C4COc5ccccc5O4)CC3)c2c1 (stereo not drawn) [Compound 51, 5-Cyano-N-(3-(4-(2,3-dihydrobenzo[b][1,4]dioxine-2-carbonyl)piperazin-1-yl)propyl)-1H-indole-3-carboxamide]",% Inhibition in the second phase of the formalin model relative to vehicle control,[1],27.3%
"N#Cc1ccc2[nH]cc(C(=O)NCCN3CCC(c4noc5cc(F)ccc45)CC3)c2c1 [Compound 52, 5-Cyano-N-(2-(4-(6-fluorobenzo[d]isoxazol-3-yl)piperidin-1-yl)ethyl)-1H-indole-3-carboxamide]",% Inhibition in the second phase of the formalin model relative to vehicle control,[1],46.7%
"N#Cc1ccc2[nH]cc(C(=O)NCCN3CCC(n4c(=O)[nH]c5cc(Cl)ccc54)CC3)c2c1 [Compound 53, N-(2-(4-(5-Chloro-2-oxo-2,3-dihydro-1H-benzo[d]imidazol-1-yl)piperidin-1-yl)ethyl)-5-cyano-1H-indole-3-carboxamide]",% Inhibition in the second phase of the formalin model relative to vehicle control,[1],14.3%
"N#Cc1ccc2[nH]cc(C(=O)NCCCN3CCC(n4c(=O)[nH]c5cc(Cl)ccc54)CC3)c2c1 [Compound 55, N-(3-(4-(5-Chloro-2-oxo-2,3-dihydro-1H-benzo[d]imidazol-1-yl)piperidin-1-yl)propyl)-5-cyano-1H-indole-3-carboxamide]",% Inhibition in the second phase of the formalin model relative to vehicle control,[1],24.0%
"O=C(c1ccc(F)cc1)C1CCN(CCn2c(=O)[nH]c3ccccc3c2=O)CC1 [Ketanserin, reference compound]",nH (Hill coefficient),[2],0.99
CC(=O)N1CCN(c2ccc(OCC3COC(Cn4ccnc4)(c4ccc(Cl)cc4Cl)O3)cc2)CC1 (stereo not drawn) [Ketoconazole],"inhibition at 15 min, 0.1 µM",[3],68%
same,"inhibition at 15 min, 0.1 µM",[4],3.2%
same,"inhibition at 15 min, 0.1 µM",[5],0%
"O=C(CCCN1CCC2(CC1)C(=O)NCN2c1ccccc1)c1ccc(F)cc1 [Spiperone, reference compound]",nH (Hill coefficient),[6],0.71
"Fc1ccc(C(OCCN2CCN(CCCc3ccccc3)CC2)c2ccc(F)cc2)cc1 [Vanoxerine, reference compound]",nH (Hill coefficient),[7],1.01
"COC(=O)[C@@H]1[C@H]2C[C@H]3c4[nH]c5ccccc5c4CCN3C[C@@H]2CC[C@@H]1O [Yohimbine, reference compound]",nH (Hill coefficient),[8],0.88
"NCC1(CC(=O)O)CCCCC1 [gabapentin, reference compound]",% Inhibition in the second phase of the formalin model relative to vehicle control,[1],70.7%
